Positions of bridges follow the written chain, without caps; N, C: chain ends. Chains are numbered I, II in the order given. No end group written: not given here. *: point of attachment. X1 = CC(=O)N[C@@H]1[C@@H](O)[C@H](O[C@@H]2O[C@H](CO)[C@@H](O[C@@H]3O[C@H](CO[C@H]4O[C@H](CO)[C@@H](O)[C@H](O)[C@@H]4O[C@@H]4O[C@H](CO)[C@@H](O[C@@H]5O[C@H](CO[C@]6(C(=O)OCc7ccccc7)C[C@H](O)[C@@H](NC(C)=O)[C@H]([C@H](O)[C@H](O)CO)O6)[C@H](O)[C@H](O)[C@H]5O)[C@H](O)[C@H]4NC(C)=O)[C@@H](O)[C@H](O[C@H]4O[C@H](CO)[C@@H](O)[C@H](O)[C@@H]4O[C@@H]4O[C@H](CO)[C@@H](O[C@@H]5O[C@H](CO[C@]6(C(=O)OCc7ccccc7)C[C@H](O)[C@@H](NC(C)=O)[C@H]([C@H](O)[C@H](O)CO)O6)[C@H](O)[C@H](O)[C@H]5O)[C@H](O)[C@H]4NC(C)=O)[C@@H]3O)[C@H](O)[C@H]2NC(C)=O)[C@@H](CO)O[C@H]1NC(=O)C*; undeca‑saccharide = not defined here; Decanoyl = CCCCCCCCCC(=O)*
Columns and labels:
rat islets = test: Glucose-dependent insulin secretion from rat islets, rat insulin ELISA (part II); format: cell-based; settings: 28 mM glucose, Table 9
Text: The pancreas of 8-week-old SD rats (Damul Science) was extracted, and islets were isolated.

human GLP-1R [1] = target: human GLP-1R (Homo sapiens, UniProt P43220); test: GLP-1 receptor luciferase reporter assay (part II, dimer analogs); settings: CV-1 cells transfected with human GLP-1R and CRE, Table 8
Chain of human GLP-1R (Homo sapiens, UniProt P43220) (P43220 24-463): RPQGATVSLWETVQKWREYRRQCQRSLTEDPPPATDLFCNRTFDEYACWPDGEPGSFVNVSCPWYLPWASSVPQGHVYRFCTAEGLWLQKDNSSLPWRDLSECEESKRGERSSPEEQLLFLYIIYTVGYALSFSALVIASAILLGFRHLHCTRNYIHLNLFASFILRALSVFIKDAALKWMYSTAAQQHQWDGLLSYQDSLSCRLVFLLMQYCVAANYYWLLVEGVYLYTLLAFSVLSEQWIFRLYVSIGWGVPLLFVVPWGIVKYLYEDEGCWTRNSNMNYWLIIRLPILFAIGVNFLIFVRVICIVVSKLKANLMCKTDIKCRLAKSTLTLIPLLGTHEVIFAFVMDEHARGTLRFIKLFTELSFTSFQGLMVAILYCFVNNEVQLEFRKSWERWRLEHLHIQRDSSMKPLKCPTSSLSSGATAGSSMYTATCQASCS
Experimental: Specifically, the fibroblast cell line CV-1 (1×10^4 cells/ml, Korea Cell Line Bank) was cultured on a 96-well white cell culture plate for 24 hours, and then human GLP-1R (pcDNA3.1_hGLP-1R) and cAMP response element (CRE, pcDNA3.1_hCRE) were added to perform transfection. After 24 hours, the medium was exchanged with a serum-free medium, followed by culture for 16 hours, and then each analog was treated for 6 hours. The expression level of luciferase, a reporter gene, by activated GLP-1R, was quantified by a luminometer, and the results are shown in Table 8.

C57BKS/J dbdb mice = test: Anti-diabetic (blood glucose lowering) effect in Type 2 diabetes mouse models; settings: 20 nmole/kg s.c., 0-48 hours
[2] = Pharmacokinetics after subcutaneous administration, Exendin-4 EIA (part II); settings: mouse, in vivo, sc
human GLP-1R [3] = target: T1, human GLP-1R (human, UniProt P43220 24-463); test: cell-based or functional assay
human GLP-1R [4] = target: T1, human GLP-1R; test: cell-based or functional assay; remark: listed apart in the source

Row | Molecule | Insulin secretion from rat islets (rat islets; 10 nM analog) [pg/mL] | Insulin secretion from rat islets (rat islets; 100 nM analog) [pg/mL] | Emax (fold induction over basal) (human GLP-1R [1]) | anti-diabetic effect (blood glucose lowering) (C57BKS/J dbdb mice) | Tmax [2] [h] | half-life [2] [h] | Emax (fold induction over basal), CRE-luciferase reporter (human GLP-1R [3]) [fold induction over basal] | fold change of EC50 level compared with Ex4 (luciferase reporter) (human GLP-1R [4]) [fold]
1 | CCCCCCCCCC(=O)NCCCC[C@H](NC(=O)[C@H](CO)NC(=O)[C@@H]1CCCN1C(=O)CNC(=O)CNC(=O)[C@H](CC(N)=O)NC(=O)[C@H](CCCCN)NC(=O)[C@H](CC(C)C)NC(=O)[C@H](Cc1c[nH]c2ccccc12)NC(=O)[C@H](CSCC(=O)N[C@@H]1O[C@H](CO)[C@@H](O[C@@H]2O[C@H](CO)[C@@H](O[C@@H]3O[C@H](CO[C@H]4O[C@H](CO)[C@@H](O)[C@H](O)[C@@H]4O[C@@H]4O[C@H](CO)[C@@H](O[C@@H]5O[C@H](CO[C@]6(C(=O)OCc7ccccc7)C[C@H](O)[C@@H](NC(C)=O)[C@H]([C@H](O)[C@H](O)CO)O6)[C@H](O)[C@H](O)[C@H]5O)[C@H](O)[C@H]4NC(C)=O)[C@@H](O)[C@H](O[C@H]4O[C@H](CO)[C@@H](O)[C@H](O)[C@@H]4O[C@@H]4O[C@H](CO)[C@@H](O[C@@H]5O[C@H](CO[C@]6(C(=O)OCc7ccccc7)C[C@H](O)[C@@H](NC(C)=O)[C@H]([C@H](O)[C@H](O)CO)O6)[C@H](O)[C@H](O)[C@H]5O)[C@H](O)[C@H]4NC(C)=O)[C@@H]3O)[C@H](O)[C@H]2NC(C)=O)[C@H](O)[C@H]1NC(C)=O)NC(=O)[C@@H](NC(=O)[C@H](Cc1ccccc1)NC(=O)[C@H](CC(C)C)NC(=O)[C@H](CCCNC(=N)N)NC(=O)[C@@H](NC(=O)[C@H](C)NC(=O)[C@H](CSSC[C@H](NC(=O)[C@H](CCC(=O)O)NC(=O)[C@H](CCC(=O)O)NC(=O)[C@H](CCSC)NC(=O)[C@H](CCC(N)=O)NC(=O)[C@H](CCCCN)NC(=O)[C@H](CO)NC(=O)[C@H](CC(C)C)NC(=O)[C@H](CC(=O)O)NC(=O)[C@H](CO)NC(=O)[C@@H](NC(=O)[C@H](Cc1ccccc1)NC(=O)[C@@H](NC(=O)CNC(=O)[C@H](CCC(=O)O)NC(=O)CNC(=O)[C@@H](N)Cc1c[nH]cn1)[C@@H](C)O)[C@@H](C)O)C(=O)N[C@@H](C)C(=O)N[C@H](C(=O)N[C@@H](CCCNC(=N)N)C(=O)N[C@@H](CC(C)C)C(=O)N[C@@H](Cc1ccccc1)C(=O)N[C@H](C(=O)N[C@@H](CSCC(=O)N[C@@H]1O[C@H](CO)[C@@H](O[C@@H]2O[C@H](CO)[C@@H](O[C@@H]3O[C@H](CO[C@H]4O[C@H](CO)[C@@H](O)[C@H](O)[C@@H]4O[C@@H]4O[C@H](CO)[C@@H](O[C@@H]5O[C@H](CO[C@]6(C(=O)OCc7ccccc7)C[C@H](O)[C@@H](NC(C)=O)[C@H]([C@H](O)[C@H](O)CO)O6)[C@H](O)[C@H](O)[C@H]5O)[C@H](O)[C@H]4NC(C)=O)[C@@H](O)[C@H](O[C@H]4O[C@H](CO)[C@@H](O)[C@H](O)[C@@H]4O[C@@H]4O[C@H](CO)[C@@H](O[C@@H]5O[C@H](CO[C@]6(C(=O)OCc7ccccc7)C[C@H](O)[C@@H](NC(C)=O)[C@H]([C@H](O)[C@H](O)CO)O6)[C@H](O)[C@H](O)[C@H]5O)[C@H](O)[C@H]4NC(C)=O)[C@@H]3O)[C@H](O)[C@H]2NC(C)=O)[C@H](O)[C@H]1NC(C)=O)C(=O)N[C@@H](Cc1c[nH]c2ccccc12)C(=O)N[C@@H](CC(C)C)C(=O)N[C@@H](CCCCN)C(=O)N[C@@H](CC(N)=O)C(=O)NCC(=O)NCC(=O)N1CCC[C@H]1C(=O)N[C@@H](CO)C(=O)N[C@@H](CCCCNC(=O)CCCCCCCCC)C(=O)O)[C@@H](C)CC)C(C)C)NC(=O)[C@H](CCC(=O)O)NC(=O)[C@H](CCC(=O)O)NC(=O)[C@H](CCSC)NC(=O)[C@H](CCC(N)=O)NC(=O)[C@H](CCCCN)NC(=O)[C@H](CO)NC(=O)[C@H](CC(C)C)NC(=O)[C@H](CC(=O)O)NC(=O)[C@H](CO)NC(=O)[C@@H](NC(=O)[C@H](Cc1ccccc1)NC(=O)[C@@H](NC(=O)CNC(=O)[C@H](CCC(=O)O)NC(=O)CNC(=O)[C@@H](N)Cc1c[nH]cn1)[C@@H](C)O)[C@@H](C)O)C(C)C)[C@@H](C)CC)C(=O)O [AGM-212-1, AGM-212(E17C & E24C-11 sugar)-S-S-AGM-212(E17C & E24C-11 sugar)] | 14506.04 ± 3493.9 | 20080 ± 8384.9 | 10.1 ± 1.2 | reduced anti-diabetic effect | – | – | – | –
2 | I: H-HGEGTFTSDLSKQMEECAVRLFIEWLKC(X1)GGPSK(Decanoyl)-OH / II: H-HGEGTFTSDLSKQMEECAVRLFIEWLKC(X1)GGPSK(Decanoyl)-OH (disulfide I:17-II:17) [AGM-212-2, AGM-212(E17C & N28C-11 sugar)-S-S-AGM-212(E17C & N28C-11 sugar)] | 14446.79 ± 654.34 | 24954.72 ± 2741.89 | 10.2 ± 1.3 | increased degree of blood glucose lowering compared with Ex4 and AGM-212 | 2 | 4.85 | – | –
3 | HGEGTFTSDLSKQMEECAVRLFIEWLKC(undeca‑saccharide)GGPSK(Decanoyl) (reading uncertain; also: homodimer via Cys17–Cys17 disulfide) [AGM-212-2] | – | – | – | – | – | – | 10.2 | ≥ 6
